What was measured:
[1] = test system: RAW 264.7 cells; assay: Nitric oxide (NO) release from LPS-activated RAW 264.7 cells, Griess Reagent System; format: cell-based, murine; conditions: for inhibition of NO production when compared with the LPS-stimulated baseline cells: 1.3 μM valerenic acid
Protocol: The objective of the studies reported in working examples 1-5 hereinbelow was to evaluate the anti-inflammatory properties of Melatonin, carnosic acid (Rosemary extract), Valerenic acid and combinations thereof on a cell line derived from murine macrophages (RAW 264.7 cells) activated by lipopolysaccharide (LPS).
10^5 RAW 264.7 cells were seeded in 96-well plates in a medium containing 1% FBS, 1% Glutamine and 1% Pen/strep in DMEM.
For dose response assays, cells were treated with 2-fold concentrations of Melatonin (starting from 15.6 μM up to 1000 μM LOT # XPS150311, Yes Pharma), Rosemary extract (0.1, 0.2, 0.4, 1, 2, 4, or 10 μM, Product #302659, Batch # LAB.16-659001, Vitiva) or 10% Valerenic acid (starting from 1.56 mg/ml up to 100 mg/ml, Batch # IWTC/5949/15001, Indo World Trading Corporation) for 6 hours. Then, the test solutions were removed and the cells were induced with lipopolysaccharide (LPS) (5 ng/ml). In addition, positive control cells were treated with 10 μM dexamethasone. Nitric oxide (NO) release was measured after incubation at 37° C., 5% CO2 using a Griess Reagent System. The method is based on the chemical diazotization reaction that was originally described by Griess in 1879, which uses sulfanilamide and N-1-napthylethylenediamine dihydrochloride (NED) under acidic (phosphoric acid) conditions. This system detects NO2^− in a variety of biological and experimental liquid matrices such as tissue culture medium that was tested in this study.
For combination assays, cells were treated with various concentrations of Melatonin, Rosemary extract (containing 25% carnosic acid) and 10% Valerenic acid, at the final concentration indicated in each experiment, hereinbelow, for 22 hours together with LPS induction (5 ng/ml). […] In addition, positive control cells were treated with 10 μM dexamethasone. Nitric oxide (NO) release was tested after incubation at 37° C., 5% CO2 using the Griess Reagent System.

[2] = test system: rats; assay: Open field center time, base-line and caffeine-relaxed rats; format: in vivo, rat; conditions: FIG. 4; caffeine-relaxed rats
Protocol: As in Example 3, above, open field tests were used to measure the anxiolytic effects of melatonin, valerian and a combination of these two substances. However, in some of the rats in the present study, the effect of the test substances was measured in rats which had also received caffeine. Thus, while the study reported in Example 3 provided insights into the effect of melatonin and valerian on base-line anxiety, the results obtained in this study relate to the effect of these substances on both base-line and caffeine-induced (“caffeine-relaxed”) subjects. The same open-field method was used as in Example 3. However, in this study, the parameter that was measured was the “center time” that is, the time that the rats spend in the center of tested arena. The center time was used as an index for the anxiolytic effect of the test substances in both “base-line” and “caffeine-relaxed” rats.

[3] = test system: laboratory rats; assay: Open field spontaneous activity (mobility time), anxiolytic effect; format: in vivo, rat; conditions: FIG. 3, 15 minute session, 30 minutes after administration
Protocol: Open field tests were used as a measure of the spontaneous activity of laboratory rats, in order to measure the anxiolytic effects of melatonin, valerian and a combination of these two substances. Rats were placed in a behavioral room one hour before testing procedures, for purpose of habituation. Activity was tested in open boxes (open-fields: 80 cm wide, 80 cm large, 60 cm high) made of transparent Plexiglas. Animals were individually placed in the open-fields for 15 minute sessions. The following parameters were recorded: Indices of motor exploratory activity: the distance traveled, mobility time, Open Field spontaneous activity is performed on the testing day, 30 minutes after the administration of a test substance (melatonin, valerian, a combination of the two, or vehicle). • Indices of habituation: distance traveled. • During the last 5 minute period in percent of the first as last 5 minute periods. • Indices of anxiety: • Percentage of distance traveled in the central zone of the open-field. • Percentage of time spent in the central zone of the open-field.

[4] = Example 1, FIG. 1, tested separately: 0.5 μM Melatonin, 0.7 μM carnosic acid, 22 hours together with 5 ng/ml LPS
[5] = Example 2, tested separately: 0.05 μM Melatonin, 0.07 μM carnosic acid, 5 ng/ml LPS

SMILES	NO production by the cultured cells ([1]; Example 1, FIG. 1 column 2, positive control 10 μM dexamethasone, 5 ng/ml LPS, LPS-stimulated untreated cells 40 μM)	inhibition of NO production when compared with the LPS-stimulated baseline cells [1, 4]	inhibition of NO production when compared with the LPS-stimulated baseline cells [1, 5]	caffeine induced center motility [2]	mobility time in comparison to the vehicle control [3]
C[C@@H]1C[C@H]2[C@@H]3CCC4=CC(=O)C=C[C@]4(C)[C@@]3(F)[C@@H](O)C[C@]2(C)[C@@]1(O)C(=O)CO [dexamethasone]	30 µM	–	–	–	–
CC(C)c1cc2c(c(O)c1O)[C@@]1(C(=O)O)CCCC(C)(C)[C@@H]1CC2 [carnosic acid]	–	none of the following individual components produced any significant inhibition	none of the following individual components produced any significant inhibition	–	–
CC1=C2[C@H](/C=C(\C)C(=O)O)CC[C@@H](C)[C@H]2CC1 [valerenic acid]	–	none of the following individual components produced any significant inhibition	none of the following individual components produced any significant inhibition	–	–
COc1ccc2[nH]cc(CCNC(C)=O)c2c1 [Melatonin, N-acetyl-5-methoxytryptamine]	–	none of the following individual components produced any significant inhibition	none of the following individual components produced any significant inhibition	only valerian (both when used separately and when combined with melatonin) affected caffeine induced center motility	increased the mobility time

Reference: patent US10675269B2, “Compositions comprising melatonin” (TRINUTRA LTD., priority 2016, dated 2020)
